Activity calls are given as the source filed them. No cut-off for these calls is given here.
What was measured:
Echinochloa crus-galli [1] = test: Pre-emergence herbicidal activity against Echinochloa crus-galli (barnyard grass) assessed as mortality at 6.3 g a.i/10 a; format: functional
Xanthium strumarium [2] = test: Post-emergence herbicidal activity against Xanthium strumarium (cocklebur) assessed as mortality at 6.3 g a.i/10 a applied 11 days after germination as foliar spray; format: functional; conditions: 264 h
Ipomoea lacunosa [3] = test: Post-emergence herbicidal activity against Ipomoea lacunosa assessed as mortality at 1.6 g a.i/10 a applied 11 days after germination as foliar spray; format: functional; conditions: 264 h
Ipomoea lacunosa [4] = test: Post-emergence herbicidal activity against Ipomoea lacunosa assessed as mortality at 6.3 g a.i/10 a applied 11 days after germination as foliar spray; format: functional; conditions: 264 h
Abutilon theophrasti [5] = test: Post-emergence herbicidal activity against Abutilon theophrasti (velvetleaf) assessed as mortality at 1.6 g a.i/10 a applied 11 days after germination as foliar spray; format: functional; conditions: 264 h
Abutilon theophrasti [6] = test: Post-emergence herbicidal activity against Abutilon theophrasti (velvetleaf) assessed as mortality at 6.3 g a.i/10 a applied 11 days after germination as foliar spray; format: functional; conditions: 264 h
Gossypium hirsutum [7] = test: (§1) Pre-emergence phytotoxicity against Gossypium hirsutum (cotton) assessed as mortality at 6.3 g a.i/10 a; format: organism-based; conditions: in vivo, other
Gossypium hirsutum [8] = test: Pre-emergence phytotoxicity against Gossypium hirsutum (cotton) assessed as mortality at 1.6 g a.i/10 a; format: organism-based; conditions: in vivo, other
Glycine max [9] = test: (§2) Pre-emergence phytotoxicity against Glycine max (soybean) assessed as mortality at 1.6 g a.i/10 a; format: organism-based; conditions: in vivo, other
[10] = (§3) Pre-emergence phytotoxicity against Glycine max (soybean) assessed as mortality at 6.3 g a.i/10 a; format: organism-based; conditions: in vivo, 6.3 g a.i/10 a
[11] = Pre-emergence phytotoxicity against Zea mays (maize) assessed as mortality at 1.6 g a.i/10 a; format: organism-based; conditions: in vivo, 1.6 g a.i/10 a
Gossypium hirsutum [12] = test: Post-emergence phytotoxicity against Gossypium hirsutum (cotton) assessed as mortality at 1.6 g a.i/10 a applied 11 days after germination as foliar spray; format: organism-based; conditions: in vivo, other, 264 h
Gossypium hirsutum [13] = test: (§4) Post-emergence phytotoxicity against Gossypium hirsutum (cotton) assessed as mortality at 6.3 g a.i/10 a applied 11 days after germination as foliar spray; format: organism-based; conditions: in vivo, other, 264 h
[14] = (§5) Post-emergence phytotoxicity against Glycine max (soybean) assessed as mortality at 1.6 g a.i/10 a applied 11 days after germination as foliar spray; format: organism-based; conditions: in vivo, 1.6 g a.i/10 a
[15] = (§6) Post-emergence phytotoxicity against Zea mays (maize) assessed as mortality at 1.6 g a.i/10 a applied 11 days after germination as foliar spray; format: organism-based; conditions: in vivo, 1.6 g a.i/10 a
Echinochloa crus-galli [16] = test: Post-emergence herbicidal activity against Echinochloa crus-galli (barnyard grass) assessed as mortality at 6.3 g a.i/10 a applied 11 days after germination as foliar spray; format: functional; conditions: 264 h
Cyperus iria [17] = test: Pre-emergence herbicidal activity against Cyperus iria assessed as growth inhibition at 25 g a.i/10 a; format: functional, organism-based
Chenopodium album [18] = test: Pre-emergence herbicidal activity against Chenopodium album assessed as growth inhibition at 25 g a.i/10 a; format: functional, organism-based
Amaranthus retroflexus [19] = test: Pre-emergence herbicidal activity against Amaranthus retroflexus assessed as growth inhibition at 25 g a.i/10 a; format: functional, organism-based
Persicaria nodosa [20] = test: Pre-emergence herbicidal activity against Persicaria nodosa assessed as growth inhibition at 25 g a.i/10 a; format: functional, organism-based
Digitaria sanguinalis [21] = test: Pre-emergence herbicidal activity against Digitaria sanguinalis (hairy crabgrass) assessed as growth inhibition at 25 g a.i/10 a; format: functional, organism-based
Echinochloa crus-galli [22] = test: Pre-emergence herbicidal activity against Echinochloa crus-galli (barnyard grass) assessed as growth inhibition at 25 g a.i/10 a; format: functional, organism-based
Cyperus iria [23] = test: Post-emergence herbicidal activity against Cyperus iria assessed as growth inhibition at 25 g a.i/10 a applied 11 days after germination as foliar spray; format: functional, organism-based
Chenopodium album [24] = test: Post-emergence herbicidal activity against Chenopodium album assessed as growth inhibition at 25 g a.i/10 a applied 11 days after germination as foliar spray; format: functional, organism-based
Amaranthus retroflexus [25] = test: Post-emergence herbicidal activity against Amaranthus retroflexus assessed as growth inhibition at 25 g a.i/10 a applied 11 days after germination as foliar spray; format: functional, organism-based
Persicaria nodosa [26] = test: Post-emergence herbicidal activity against Persicaria nodosa assessed as growth inhibition at 25 g a.i/10 a applied 11 days after germination as foliar spray; format: functional, organism-based
Digitaria sanguinalis [27] = test: Post-emergence herbicidal activity against Digitaria sanguinalis (hairy crabgrass) assessed as growth inhibition at 25 g a.i/10 a applied 11 days after germination as foliar spray; format: functional, organism-based
Echinochloa crus-galli [28] = test: Post-emergence herbicidal activity against Echinochloa crus-galli (barnyard grass) assessed as growth inhibition at 25 g a.i/10 a applied 11 days after germination as foliar spray; format: functional, organism-based
Xanthium strumarium [29] = test: Pre-emergence herbicidal activity against Xanthium strumarium (cocklebur) assessed as mortality at 1.6 g a.i/10 a; format: functional; conditions: for mortality at 16 g/ha: Xanthium strumarium, pre-emergence
Ipomoea lacunosa [30] = test: Pre-emergence herbicidal activity against Ipomoea lacunosa assessed as mortality at 1.6 g a.i/10 a; format: functional; conditions: for mortality at 16 g/ha: Ipomoea lacunosa, pre-emergence
Abutilon theophrasti [31] = test: Pre-emergence herbicidal activity against Abutilon theophrasti (velvetleaf) assessed as mortality at 1.6 g a.i/10 a; format: functional
Abutilon theophrasti [32] = test: Pre-emergence herbicidal activity against Abutilon theophrasti (velvetleaf) assessed as mortality at 6.3 g a.i/10 a; format: functional
Glycine max [33] = test: as §3; format: organism-based; conditions: in vivo, other
Xanthium strumarium [34] = test: Pre-emergence herbicidal activity against Xanthium strumarium (cocklebur) assessed as mortality at 6.3 g a.i/10 a; format: functional
[35] = as §1; format: organism-based; conditions: in vivo, 6.3 g a.i/10 a, read-out: Activity
[36] = as §2; format: organism-based; conditions: in vivo, 1.6 g a.i/10 a, read-out: Activity
Zea mays [37] = test: Pre-emergence phytotoxicity against Zea mays (maize) assessed as mortality at 6.3 g a.i/10 a; format: organism-based; conditions: in vivo, other
[38] = as §4; format: organism-based; conditions: in vivo, 6.3 g a.i/10 a
Glycine max [39] = test: Post-emergence phytotoxicity against Glycine max (soybean) assessed as mortality at 6.3 g a.i/10 a applied 11 days after germination as foliar spray; format: organism-based; conditions: in vivo, other, 264 h
Glycine max [40] = test: as §5; format: organism-based; conditions: in vivo, other, 264 h
Zea mays [41] = test: as §6; format: organism-based; conditions: in vivo, other, 264 h
Echinochloa crus-galli [42] = test: Post-emergence herbicidal activity against Echinochloa crus-galli (barnyard grass) assessed as mortality at 1.6 g a.i/10 a applied 11 days after germination as foliar spray; format: functional; conditions: 264 h
Ipomoea lacunosa [43] = test: Pre-emergence herbicidal activity against Ipomoea lacunosa assessed as mortality at 6.3 g a.i/10 a; format: functional
Echinochloa crus-galli [44] = test: Pre-emergence herbicidal activity against Echinochloa crus-galli (barnyard grass) assessed as mortality at 1.6 g a.i/10 a; format: functional
[45] = Abutilon theophrasti, pre-emergence

Structure (SMILES) | mortality at 63 g/ha (Xanthium strumarium [2]) | mortality at 63 g/ha (Ipomoea lacunosa [4]) | mortality at 16 g/ha (Abutilon theophrasti [5]) | mortality at 63 g/ha (Abutilon theophrasti [6]) | Activity (Gossypium hirsutum [7]) | Activity (Gossypium hirsutum [8]) | Activity (Glycine max [9]) | mortality ([11]; read-out: mortality) | Activity (Gossypium hirsutum [12]) | Activity (Gossypium hirsutum [13]) | mortality at 264 h [14] | mortality at 264 h [15] | mortality at 63 g/ha (Echinochloa crus-galli [16]) | growth inhibition (GI) (Cyperus iria [17]) | growth inhibition (GI) (Chenopodium album [18]) | growth inhibition (GI) (Amaranthus retroflexus [19]) | growth inhibition (GI) (Persicaria nodosa [20]) | growth inhibition (GI) (Digitaria sanguinalis [21]) | growth inhibition (GI) (Echinochloa crus-galli [22]) | growth inhibition (GI) (Cyperus iria [23]) | further results
COc1cc(OC)nc(Oc2cccc(I)c2C(=O)O)n1 | > 90% | > 90% | > 90% | > 90% | Non-toxic | Non-toxic | Toxic | > 90% | Toxic | Toxic | > 90% | > 90% | > 90% | Active | Active | Active | Active | Active | Active | Active | mortality at 63 g/ha (Echinochloa crus-galli [1]; Echinochloa crus-galli, pre-emergence): > 90%; mortality at 16 g/ha (Ipomoea lacunosa [3]): > 90%; mortality ([10]; read-out: mortality): > 90%; growth inhibition (GI) (Chenopodium album [24]): Active; growth inhibition (GI) (Amaranthus retroflexus [25]): Active; growth inhibition (GI) (Persicaria nodosa [26]): Active; growth inhibition (GI) (Digitaria sanguinalis [27]): Active; growth inhibition (GI) (Echinochloa crus-galli [28]): Active; mortality at 16 g/ha (Xanthium strumarium [29]): < 5%; mortality at 16 g/ha (Ipomoea lacunosa [30]): < 5%; mortality at 16 g/ha (Abutilon theophrasti [31]; [45]): > 90%; mortality at 63 g/ha (Abutilon theophrasti [32]; [45]): > 90%
COc1cc(OC)nc(Oc2cccc(C(F)(F)F)c2C(=O)O)n1 | > 90% | > 90% | > 90% | > 90% | Non-toxic | Non-toxic | Toxic | > 90% | Toxic | Toxic | > 90% | > 90% | – | Active | Active | Active | Active | Active | Active | Active | Activity (Glycine max [33]): Toxic; growth inhibition (GI) (Chenopodium album [24]): Active; growth inhibition (GI) (Amaranthus retroflexus [25]): Active; growth inhibition (GI) (Persicaria nodosa [26]): Active; growth inhibition (GI) (Digitaria sanguinalis [27]): Active; growth inhibition (GI) (Echinochloa crus-galli [28]): Active; mortality at 16 g/ha (Xanthium strumarium [29]): < 5%; mortality at 63 g/ha (Xanthium strumarium [34]; Xanthium strumarium, pre-emergence): < 5%; mortality at 16 g/ha (Ipomoea lacunosa [30]): < 5%
COc1cc(OC)nc(Sc2cccc(OC(C)C)c2C(=O)O)n1 | – | > 90% | > 90% | > 90% | – | < 50% | – | – | Non-toxic | – | – | – | < 5% | – | – | – | – | – | – | – | Activity (Echinochloa crus-galli [1]): <50%; mortality [35]: < 50%; mortality [36]: < 50%; mortality ([10]; read-out: Activity): < 50%; mortality ([11]; read-out: Activity): < 50%; Activity (Zea mays [37]): < 50%; mortality at 264 h [38]: > 90%; Activity (Glycine max [39]): Toxic; Activity (Glycine max [40]): Toxic; Activity (Zea mays [41]): Toxic; mortality at 16 g/ha (Echinochloa crus-galli [42]): < 5%; Activity (Xanthium strumarium [29]): <50%; Activity (Xanthium strumarium [34]): <50%; Activity (Ipomoea lacunosa [30]): <50%; Activity (Ipomoea lacunosa [43]): <50%; Activity (Abutilon theophrasti [31]): <50%; Activity (Abutilon theophrasti [32]): <50%; Activity (Echinochloa crus-galli [44]): <50%

From ChEMBL document CHEMBL3046894, “Synthesis and Herbicidal Activity of Pyrimidinyl Salicylic and Thiosalicylic Acids” (J Pestic Sci, 1996)
